Measurements from patent US10588317B2, “Isoxazoline-substituted benzamides and analogues as insecticides” (priority 2015, dated 2020).

Experiments:
Type in all cases: in vivo
Myzus persicae = Myzus persicae (green peach aphid): feeding/contact activity; settings: 144 h, application rate 200 ppm, aphid population of mixed ages, 6 days after infestation, read-out: mortality
Procedure: (§1) Sunflower leaf discs were placed onto agar in a 24-well microtiter plate and sprayed with aqueous test solutions prepared from 10'000 ppm DMSO stock solutions. After drying, the leaf discs were infested with an aphid population of mixed ages. The samples were assessed for mortality 6 days after infestation.

Diabrotica balteata = Diabrotica balteata (corn root worm), sprayed maize sprouts; settings: 96 h, application rate 200 ppm, L2 larvae, 4 days after infestation, read-out: effect in at least one of the two categories (mortality or growth inhibition)
Outline: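 Maize sprouts on agar sprayed with aqueous dilutions of DMSO stocks, dried, then infested with L2 larvae (6–10 per well). Mortality and growth inhibition scored against untreated controls 4 days after infestation, at 200 ppm application rate.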

Tetranychus urticae = Tetranychus urticae (two-spotted spider mite): feeding/contact activity; settings: 192 h, application rate 200 ppm, mixed population (mobile stages), 8 days after infestation, read-out: mortality
Procedure: Bean leaf discs on agar in 24-well microtiter plates were sprayed with aqueous test solutions prepared from 10'000 ppm DMSO stock solutions. After drying the leaf discs were infested with a mite population of mixed ages. The samples were assessed for mortality on mixed population (mobile stages) 8 days after infestation.

Euschistus heros = Euschistus heros (neotropical brown stink bug), sprayed soybean leaves; settings: 120 h, application rate 200 ppm, N2 nymphs, 5 days after infestation, read-out: effect in at least one of the two categories (mortality or growth inhibition)
Outline: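 Soybean leaves on agar sprayed with aqueous dilutions of DMSO stocks, dried, then infested with N2 nymphs. Mortality and growth inhibition scored against untreated samples 5 days after infestation; application rate 200 ppm.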

Thrips tabaci = Thrips tabaci (onion thrips): feeding/contact activity; settings: 144 h, application rate 200 ppm, Thrips population of mixed ages, 6 days after infestation, read-out: mortality
Procedure: as §1, with “on” for “onto”, “in” for “in a”, “plates” for “plate”, “drying” for “drying,”, “a Thrips” for “an aphid”

Spodoptera littoralis = Spodoptera littoralis (Egyptian cotton leaf worm), sprayed cotton leaf discs; settings: foliar, 72 h, application rate 200 ppm, L1 larvae, 3 days after infestation, read-out: control (mortality, anti-feeding effect, growth inhibition)
Outline: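 Cotton leaf discs on agar sprayed with aqueous test solutions made from 10'000 ppm DMSO stock; after drying, infested with five L1 larvae. Mortality, anti-feeding and growth inhibition scored versus untreated samples 3 days after infestation; control counted when any category exceeds untreated.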

Plutella xylostella = Plutella xylostella (diamond back moth), artificial diet; settings: 120 h, application rate 200 ppm, L2 larvae, 5 days after infestation, read-out: effect in at least one of the two categories (mortality or growth inhibition)
Outline: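 Artificial diet in 24-well plates treated with aqueous test solutions made from 10'000 ppm DMSO stocks, dried, then infested with L2 larvae (10 to 15 per well). Mortality and growth inhibition scored against untreated samples 5 days after infestation; activity cut-off at least 80% in either category at 200 ppm.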

Cc1cc(C2=NO[C@@](c3cc(F)cc(C(F)(F)F)c3)(C(F)(F)F)C2)ccc1C(=O)N[C@@H]1CON(S(C)(=O)=O)C1 [Compound A172]
≥ 80%: mortality at 200 ppm (Myzus persicae) | percent effect (mortality or growth inhibition) at 200 ppm (Diabrotica balteata) | mortality at 200 ppm (Tetranychus urticae) | percent effect (mortality or growth inhibition) at 200 ppm (Euschistus heros) | mortality at 200 ppm (Thrips tabaci) | mortality at 200 ppm (Spodoptera littoralis) | percent effect (mortality or growth inhibition) at 200 ppm (Plutella xylostella)

Cc1cc(C2=NO[C@@](c3cc(Cl)c(F)c(Cl)c3)(C(F)(F)F)C2)ccc1C(=O)NC1CON(S(=O)(=O)N(C)C(=O)c2ccccc2)C1 (stereo partly drawn) [Compound A80, N-[2-[benzoyl(methyl)sulfamoyl]isoxazolidin-4-yl]-4-[(5S)-5-(3,5-dichloro-4-fluoro-phenyl)-5-(trifluoromethyl)-4H-isoxazol-3-yl]-2-methyl-benzamide]
≥ 80%: mortality at 200 ppm (Myzus persicae) | percent effect (mortality or growth inhibition) at 200 ppm (Diabrotica balteata) | mortality at 200 ppm (Tetranychus urticae) | percent effect (mortality or growth inhibition) at 200 ppm (Euschistus heros) | mortality at 200 ppm (Thrips tabaci) | mortality at 200 ppm (Spodoptera littoralis) | percent effect (mortality or growth inhibition) at 200 ppm (Plutella xylostella)

Cc1cc(C2=NO[C@@](c3cc(Cl)cc(Cl)c3)(C(F)(F)F)C2)ccc1C(=O)N[C@H]1CON(S(=O)(=O)N(C)C2CC2)C1 [Compound A156]
≥ 80%: mortality at 200 ppm (Myzus persicae) | percent effect (mortality or growth inhibition) at 200 ppm (Diabrotica balteata) | mortality at 200 ppm (Tetranychus urticae) | percent effect (mortality or growth inhibition) at 200 ppm (Euschistus heros) | mortality at 200 ppm (Thrips tabaci) | mortality at 200 ppm (Spodoptera littoralis) | percent effect (mortality or growth inhibition) at 200 ppm (Plutella xylostella)

Cc1cc(C(F)(F)F)cc([C@@]2(C(F)(F)F)CC(c3ccc(C(=O)N[C@@H]4CON(S(C)(=O)=O)C4)c(C)c3)=NO2)c1 [Compound A212]
≥ 80%: mortality at 200 ppm (Myzus persicae) | percent effect (mortality or growth inhibition) at 200 ppm (Diabrotica balteata) | mortality at 200 ppm (Tetranychus urticae) | percent effect (mortality or growth inhibition) at 200 ppm (Euschistus heros) | mortality at 200 ppm (Thrips tabaci) | mortality at 200 ppm (Spodoptera littoralis) | percent effect (mortality or growth inhibition) at 200 ppm (Plutella xylostella)

Cc1cc(C2=NO[C@@](c3cc(Cl)cc(C(F)(F)F)c3)(C(F)(F)F)C2)ccc1C(=O)N[C@@H]1CON(S(=O)(=O)CC(F)(F)F)C1 [Compound A214]
≥ 80%: mortality at 200 ppm (Myzus persicae) | percent effect (mortality or growth inhibition) at 200 ppm (Diabrotica balteata) | mortality at 200 ppm (Tetranychus urticae) | percent effect (mortality or growth inhibition) at 200 ppm (Euschistus heros) | mortality at 200 ppm (Thrips tabaci) | mortality at 200 ppm (Spodoptera littoralis) | percent effect (mortality or growth inhibition) at 200 ppm (Plutella xylostella)

CN(C1CC1)S(=O)(=O)N1C[C@@H](NC(=O)c2ccc(C3=NO[C@@](c4cc(Cl)cc(Cl)c4)(C(F)(F)F)C3)cc2Cl)CO1 [Compound A153]
≥ 80%: mortality at 200 ppm (Myzus persicae) | percent effect (mortality or growth inhibition) at 200 ppm (Diabrotica balteata) | mortality at 200 ppm (Tetranychus urticae) | percent effect (mortality or growth inhibition) at 200 ppm (Euschistus heros) | mortality at 200 ppm (Thrips tabaci) | mortality at 200 ppm (Spodoptera littoralis) | percent effect (mortality or growth inhibition) at 200 ppm (Plutella xylostella)

Cc1cc(C2=NO[C@@](c3cc(F)cc(C(F)(F)F)c3)(C(F)(F)F)C2)ccc1C(=O)N[C@@H]1CON(S(=O)(=O)N(C)C)C1 [Compound A169]
≥ 80%: mortality at 200 ppm (Myzus persicae) | percent effect (mortality or growth inhibition) at 200 ppm (Diabrotica balteata) | mortality at 200 ppm (Tetranychus urticae) | percent effect (mortality or growth inhibition) at 200 ppm (Euschistus heros) | mortality at 200 ppm (Thrips tabaci) | mortality at 200 ppm (Spodoptera littoralis) | percent effect (mortality or growth inhibition) at 200 ppm (Plutella xylostella)

Cc1cc(C2=NO[C@@](c3cc(Cl)c(F)c(Cl)c3)(C(F)(F)F)C2)ccc1C(=O)N[C@H]1CON(S(=O)(=O)N2CCC2)C1 [Compound A148]
≥ 80%: mortality at 200 ppm (Myzus persicae) | percent effect (mortality or growth inhibition) at 200 ppm (Diabrotica balteata) | mortality at 200 ppm (Tetranychus urticae) | percent effect (mortality or growth inhibition) at 200 ppm (Euschistus heros) | mortality at 200 ppm (Thrips tabaci) | mortality at 200 ppm (Spodoptera littoralis) | percent effect (mortality or growth inhibition) at 200 ppm (Plutella xylostella)

CNS(=O)(=O)N1C[C@@H](NC(=O)c2ccc(C3=NO[C@](c4cc(Cl)c(OC(F)F)c(Cl)c4)(C(F)(F)F)C3)cc2C)CO1 [Compound A207, 4-[(5R)-5-[3,5-dichloro-4-(difluoromethoxy)phenyl]-5-(trifluoromethyl)-4H-1,2-oxazol-3-yl]-2-methyl-N-[(4R)-2-(methylsulfamoyl)-1,2-oxazolidin-4-yl]benzamide]
≥ 80%: mortality at 200 ppm (Myzus persicae) | percent effect (mortality or growth inhibition) at 200 ppm (Diabrotica balteata) | mortality at 200 ppm (Tetranychus urticae) | percent effect (mortality or growth inhibition) at 200 ppm (Euschistus heros) | mortality at 200 ppm (Thrips tabaci) | mortality at 200 ppm (Spodoptera littoralis) | percent effect (mortality or growth inhibition) at 200 ppm (Plutella xylostella)

Cc1cc(C2=NO[C@@](c3cc(Cl)cc(Cl)c3)(C(F)(F)F)C2)ccc1C(=O)N[C@@H]1CON(S(N)(=O)=O)C1 [Compound A178, 4-[(5S)-5-(3,5-dichlorophenyl)-5-(trifluoromethyl)-4H-1,2-oxazol-3-yl]-2-methyl-N-[(4S)-2-sulfamoyl-1,2-oxazolidin-4-yl]benzamide]
≥ 80%: mortality at 200 ppm (Myzus persicae) | percent effect (mortality or growth inhibition) at 200 ppm (Diabrotica balteata) | mortality at 200 ppm (Tetranychus urticae) | percent effect (mortality or growth inhibition) at 200 ppm (Euschistus heros) | mortality at 200 ppm (Thrips tabaci) | mortality at 200 ppm (Spodoptera littoralis) | percent effect (mortality or growth inhibition) at 200 ppm (Plutella xylostella)

Cc1cc(C2=NO[C@](c3cc(Cl)c(F)c(Cl)c3)(C(F)(F)F)C2)ccc1C(=O)N[C@H]1CON(S(=O)(=O)NC2(C#N)CC2)C1 [Compound A168]
≥ 80%: mortality at 200 ppm (Myzus persicae) | percent effect (mortality or growth inhibition) at 200 ppm (Diabrotica balteata) | mortality at 200 ppm (Tetranychus urticae) | percent effect (mortality or growth inhibition) at 200 ppm (Euschistus heros) | mortality at 200 ppm (Thrips tabaci) | mortality at 200 ppm (Spodoptera littoralis) | percent effect (mortality or growth inhibition) at 200 ppm (Plutella xylostella)

Cc1cc(C2=NO[C@](c3cc(Cl)c(Cl)c(Cl)c3)(C(F)(F)F)C2)ccc1C(=O)N[C@H]1CON(S(=O)(=O)CCl)C1 [Compound A220, N-[(4R)-2-(chloromethylsulfonyl)-1,2-oxazolidin-4-yl]-2-methyl-4-[(5R)-5-(3,4,5-trichlorophenyl)-5-(trifluoromethyl)-4H-1,2-oxazol-3-yl]benzamide]
≥ 80%: mortality at 200 ppm (Myzus persicae) | percent effect (mortality or growth inhibition) at 200 ppm (Diabrotica balteata) | mortality at 200 ppm (Tetranychus urticae) | percent effect (mortality or growth inhibition) at 200 ppm (Euschistus heros) | mortality at 200 ppm (Thrips tabaci) | mortality at 200 ppm (Spodoptera littoralis) | percent effect (mortality or growth inhibition) at 200 ppm (Plutella xylostella)

CCCCN(C)S(=O)(=O)N1CC(NC(=O)c2ccc(C3=NO[C@@](c4cc(Cl)c(Cl)c(Cl)c4)(C(F)(F)F)C3)cc2C)CO1 (stereo partly drawn) [Compound A85, N-[2-[butyl(methyl)sulfamoyl]isoxazolidin-4-yl]-2-methyl-4-[(5S)-5-(3,4,5-trichlorophenyl)-5-(trifluoromethyl)-4H-isoxazol-3-yl]benzamide]
≥ 80%: mortality at 200 ppm (Myzus persicae) | percent effect (mortality or growth inhibition) at 200 ppm (Diabrotica balteata) | mortality at 200 ppm (Tetranychus urticae) | percent effect (mortality or growth inhibition) at 200 ppm (Euschistus heros) | mortality at 200 ppm (Thrips tabaci) | mortality at 200 ppm (Spodoptera littoralis) | percent effect (mortality or growth inhibition) at 200 ppm (Plutella xylostella)

Cc1cc(C2=NO[C@](c3ccc(F)c(C(F)(F)F)c3)(C(F)(F)F)C2)ccc1C(=O)N[C@@H]1CON(S(=O)(=O)N(C)C)C1 [Compound A184]
≥ 80%: mortality at 200 ppm (Myzus persicae) | percent effect (mortality or growth inhibition) at 200 ppm (Diabrotica balteata) | mortality at 200 ppm (Tetranychus urticae) | percent effect (mortality or growth inhibition) at 200 ppm (Euschistus heros) | mortality at 200 ppm (Thrips tabaci) | mortality at 200 ppm (Spodoptera littoralis) | percent effect (mortality or growth inhibition) at 200 ppm (Plutella xylostella)
